The values that follow come from patent US20240246964A1 (Arbutus Biopharma Corporation, priority 2021, published 2024).

pEC50, pIC50: −log10 of the molar value.

The target of assay [1] is PD-L1 His protein / PD-1 Fc protein (Homo sapiens (Human), UniProt Q9NZQ7). The assay is described as follows: HTRF Assay (PD-1/PD-L1 interaction). Type of assay: binding. As to conditions: PD-L1 His 6 nM, PD-1 Fc 6 nM.
Another assay concerns the target human PD-L1 (Homo sapiens (Human), UniProt Q9NZQ7). The assay can be described thus: T cell activation luciferase reporter cell culture system (T Cell Activation Assay). Type of assay: cell-based. Conditions: luciferase reporter assay; PD-L1 aAPC/CHO-K1 cells with PD-1 effector Jurkat T cells.

Sequence of human PD-L1 (Q9NZQ7 19-290): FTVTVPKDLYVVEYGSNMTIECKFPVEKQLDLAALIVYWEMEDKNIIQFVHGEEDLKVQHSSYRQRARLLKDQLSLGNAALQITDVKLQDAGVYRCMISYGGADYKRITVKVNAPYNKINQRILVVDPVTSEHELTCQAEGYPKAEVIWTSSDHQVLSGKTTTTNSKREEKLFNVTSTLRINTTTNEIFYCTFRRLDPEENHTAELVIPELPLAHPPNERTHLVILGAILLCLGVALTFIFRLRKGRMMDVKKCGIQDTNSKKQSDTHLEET
Sequence of PD-L1 His protein / PD-1 Fc protein (Q9NZQ7 19-238): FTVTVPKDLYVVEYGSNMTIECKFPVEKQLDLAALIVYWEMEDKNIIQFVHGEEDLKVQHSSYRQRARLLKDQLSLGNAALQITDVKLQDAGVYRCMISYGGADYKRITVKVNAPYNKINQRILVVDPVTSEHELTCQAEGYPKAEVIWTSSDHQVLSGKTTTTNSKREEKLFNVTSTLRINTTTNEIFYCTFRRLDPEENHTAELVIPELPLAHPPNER

In turn, `COc1nc(-c2cccc(-c3nccc(-c4ccc(CNC5CCN(C(C)=O)CC5)c(OC)n4)c3Cl)c2Cl)ccc1CN1CC2(CNC(=O)C2)C1` [Compound 682, 2-((6-(3-(5-(((1-Acetylpiperidin-4-yl)amino)methyl)-3′-chloro-6-methoxy-[2,4′-bipyridin]-2′-yl)-2-chlorophenyl)-2-methoxypyridin-3-yl)methyl)-2,6-diazaspiro[3.4]octan-7-one] showed a pIC50 in assay [1] of 9.77. The compound further showed a pEC50 on human PD-L1 of 7.61.

With `COc1cc(-c2ncnc(-c3cccc(NC(=O)c4cn(C)c(=O)n(C)c4=O)c3Cl)c2Cl)ccc1CNC[C@@H]1CCC(=O)N1` [Compound 708, (S)—N-(2-Chloro-3-(5-chloro-6-(3-methoxy-4-((((5-oxopyrrolidin-2-yl)methyl)amino)methyl)phenyl)pyrimidin-4-yl)phenyl)-1,3-dimethyl-2,4-dioxo-1,2,3,4-tetrahydropyrimidine-5-carboxamide], in assay [1], the negative-log IC50 (pIC50) is 9.54. The compound further had a pEC50 at human PD-L1 of 5.88.

`COc1nc(-c2ccnc(-c3cccc(NC(=O)c4cn(C)c(=O)n(C)c4=O)c3Cl)c2Cl)ccc1CNC1CCN(C(C)=O)CC1` [Compound 721, N-(3-(5-(((1-Acetylpiperidin-4-yl)amino)methyl)-3′-chloro-6-methoxy-[2,4′-bipyridin]-2′-yl)-2-chlorophenyl)-1,3-dimethyl-2,4-dioxo-1,2,3,4-tetrahydropyrimidine-5-carboxamide]: the negative-log IC50 (pIC50) in assay [1] is 9.15. This compound also had a negative logarithm of the EC50 (pEC50) on human PD-L1 of 5.88.

As for `COc1nc(-c2ccnc(-c3cccc(NC(=O)c4cn(C)c(=O)n(C)c4=O)c3Cl)c2Cl)ccc1CN1CC2(C1)CN(C(C)=O)C2` [Compound 731, N-(3-(5-((6-Acetyl-2,6-diazaspiro[3.3]heptan-2-yl)methyl)-3′-chloro-6-methoxy-[2,4′-bipyridin]-2′-yl)-2-chlorophenyl)-1,3-dimethyl-2,4-dioxo-1,2,3,4-tetrahydropyrimidine-5-carboxamide], the pIC50 in assay [1] was 9.05. On human PD-L1, this compound gave a negative logarithm of the EC50 (pEC50) of 5.93.

As for `COc1nc(-c2ccnc(-c3cccc(NC(=O)c4cn(C)c(=O)n(C)c4=O)c3Cl)c2Cl)ccc1CNC[C@H](C)O` [Compound 745, (S)—N-(2-Chloro-3-(3′-chloro-5-(((2-hydroxypropyl)amino)methyl)-6-methoxy-[2,4′-bipyridin]-2′-yl)phenyl)-1,3-dimethyl-2,4-dioxo-1,2,3,4-tetrahydropyrimidine-5-carboxamide], the pIC50 in assay [1] was 9.51. Also, the negative logarithm of the EC50 (pEC50) at human PD-L1 was 6.43.

In assay [1], `COc1cc(-c2ncnc(-c3cccc(NC(=O)c4cn(C)c(=O)n(C)c4=O)c3Cl)c2Cl)ccc1CNC[C@H](C)O` [Compound 746, (S)—N-(2-Chloro-3-(5-chloro-6-(4-(((2-hydroxypropyl)amino)methyl)-3-methoxyphenyl)pyrimidin-4-yl)phenyl)-1,3-dimethyl-2,4-dioxo-1,2,3,4-tetrahydropyrimidine-5-carboxamide] gave a negative logarithm of the IC50 (pIC50) of 8.89. At human PD-L1, this compound had a negative-log EC50 (pEC50) of 5.68.

`COc1nc(-c2cccc(-c3ccnc(-c4cc(OC)c5nc(CN6CC7(CC(O)C7)C6)nn5c4)c3Cl)c2Cl)ccc1CNC(C)C` [Compound 753, 2-((6-(3-Chloro-4-(2-chloro-3-(5-((isopropylamino)methyl)-6-methoxypyridin-2-yl)phenyl)pyridin-2-yl)-8-methoxy-[1,2,4]triazolo[1,5-a]pyridin-2-yl)methyl)-2-azaspiro[3.3]heptan-6-ol] gave a pIC50 in assay [1] of 9.70. On human PD-L1, the pEC50 is 7.06.

In assay [1], `COc1nc(-c2cccc(-c3ccnc(-c4cc(OC)c5nc(CN[C@H]6CC[C@H](O)CC6)nn5c4)c3Cl)c2Cl)ccc1CNC(C)C` [Compound 758, (1r,4r)-4-(((6-(3-Chloro-4-(2-chloro-3-(5-((isopropylamino)methyl)-6-methoxypyridin-2-yl)phenyl)pyridin-2-yl)-8-methoxy-[1,2,4]triazolo[1,5-a]pyridin-2-yl)methyl)amino)cyclohexanol] showed a negative-log IC50 (pIC50) of 9.62. This compound also showed a pEC50 at human PD-L1 of 6.45.

Turning to `COc1nc(-c2cccc(-c3ccnc(-c4cc(OC)c5nc(CNC(C)C)nn5c4)c3Cl)c2Cl)ccc1CNC(C)C` [Compound 763, N-((6-(2-chloro-3-(3-chloro-2-(2-((isopropylamino)methyl)-8-methoxy-[1,2,4]triazolo[1,5-a]pyridin-6-yl)pyridin-4-yl)phenyl)-2-methoxypyridin-3-yl)methyl)propan-2-amine], the pIC50 in assay [1] is 9.60. On human PD-L1, this compound had a negative logarithm of the EC50 (pEC50) of 6.19.

Regarding `COc1nc(-c2cccc(-c3ccnc(-c4cc(OC)c5nc(CNC[C@@H]6CCC(=O)N6)nn5c4)c3Cl)c2Cl)ccc1CNC(C)C` [Compound 764, (S)-5-((((6-(3-chloro-4-(2-chloro-3-(5-((isopropylamino)methyl)-6-methoxypyridin-2-yl)phenyl)pyridin-2-yl)-8-methoxy-[1,2,4]triazolo[1,5-a]pyridin-2-yl)methyl)amino)methyl)pyrrolidin-2-one], in assay [1], the pIC50 is 9.25. The same compound gave a pEC50 on human PD-L1 of 6.06.

Take `COc1nc(-c2cccc(-c3ccnc(-c4cc(OC)c5nc(CNC6CCN(C(C)=O)CC6)nn5c4)c3Cl)c2Cl)ccc1CNC(C)C` [Compound 765, 1-(4-(((6-(3-Chloro-4-(2-chloro-3-(5-((isopropylamino)methyl)-6-methoxypyridin-2-yl)phenyl)pyridin-2-yl)-8-methoxy-[1,2,4]triazolo[1,5-a]pyridin-2-yl)methyl)amino)piperidin-1-yl)ethan-1-one]: in assay [1], the negative-log IC50 (pIC50) was 9.55. At human PD-L1, this compound gave a pEC50 of 5.89.

Compound `COc1nc(-c2cccc(-c3ccnc(-c4cc(OC)c5nc(CN6CC7(C6)CN(C(C)=O)C7)nn5c4)c3Cl)c2Cl)ccc1CNC(C)C` [Compound 767, 1-(6-((6-(3-Chloro-4-(2-chloro-3-(5-((isopropylamino)methyl)-6-methoxypyridin-2-yl)phenyl)pyridin-2-yl)-8-methoxy-[1,2,4]triazolo[1,5-a]pyridin-2-yl)methyl)-2,6-diazaspiro[3.3]heptan-2-yl)ethan-1-one] gave a pIC50 in assay [1] of 9.62. The compound further had a pEC50 at human PD-L1 of 7.04.

In turn, `COc1nc(-c2cccc(-c3ccnc(-c4cc5c(=O)n(C)c(CN6CC(C)(O)C6)nn5c4)c3Cl)c2Cl)ccc1CN1CC(C)(O)C1` [Example 231, 6-(3-Chloro-4-(2-chloro-3-(5-((3-hydroxy-3-methylazetidin-1-yl)methyl)-6-methoxypyridin-2-yl)phenyl)pyridin-2-yl)-2-((3-hydroxy-3-methylazetidin-1-yl)methyl)-3-methylpyrrolo[2,1-f][1,2,4]triazin-4(3H)-one] gave a pIC50 in assay [1] of 8.45. The compound further gave a negative logarithm of the EC50 (pEC50) on human PD-L1 of 6.98.

`COc1cc(-c2nccc(-c3cccc(-c4ccc(CNC5CCN(C(C)=O)CC5)c(OC)n4)c3Cl)c2Cl)ccc1CN1CC[C@H](C(=O)O)C1` [Example 239, (S)-1-(4-(4-(3-(5-(((1-acetylpiperidin-4-yl)amino)methyl)-6-methoxypyridin-2-yl)-2-chlorophenyl)-3-chloropyridin-2-yl)-2-methoxybenzyl)pyrrolidine-3-carboxylic acid] showed a pIC50 in assay [1] of 9.72. Besides, at human PD-L1, the negative logarithm of the EC50 (pEC50) was 6.79.
